This is an account of results in patent publication US20240024509A1, “COMPOSITIONS AND METHODS FOR TREATING CEREBROSPINAL FLUID DISORDERS” (The Children's Medical Center Corporation, priority 2021, published 2024).

SMILES strings stand for the structures.

Data set [1] concerns choroid plexus (ChP) epithelial cells. In words: Calcium imaging of LV ChP explants exposed to plasma. The following applies: LV ChP explant, FoxJ1-Cre::GCaMP6f mice. It is filed as cell-based, mouse. How it is done:
[…] Imaging and analyses were performed as described (12). Plasma (using citrate as anti-coagulant instead of EDTA, same protocol as described above) was delivered to explants by topical application from a glass capillary needle and serum was delivered to the lateral ventricle of live mice during imaging through the injection cannula. Serum was prepared by collecting blood using the same approach as described above, incubating on ice for 30 min. and then centrifuging for 10 min. at 5,000 g twice to separate the supernatant.

Data set [2] deals with intraventricular hemorrhage (IVH) model. Kind of data set: E14.5 IVH model with calcium signaling disruption (LiCl pretreatment or EDTA), MRI and infusion test. It is filed as in vivo, mouse. The text has this: Timed pregnant mice (E14.5) were anesthetized with isoflurane and kept warm. Following laparotomy, AAV solution or age-matched whole blood was delivered into the lateral ventricle of each embryo (located visually) using glass capillary pipettes. The uterine horns were returned to the abdomen and the incisions sutured. When age-matched whole blood was used, the donor mouse was anesthetized with ketamine/xylazine and warmed. Fresh blood was obtained from the jugular veins with a glass capillary pipette and immediately delivered to the recipient.
Mice were imaged using Bruker BioSpec small animal MRI (7T) at P14 or P25 while under anesthesia by isoflurane. A warm pad was used to maintain body temperature. Breathing rate and heart rate were monitored to reflect the depth of anesthesia. All T2 images were acquired using the following criteria: TE/TR=60/4000; Ave=4; RARE=4; slice thickness=0.6 mm.
Constant aCSF infusion testing was performed as previously described (23). In summary, a single catheter was implanted into the lateral ventricle of a mouse under anesthesia. The catheter infused aCSF at a constant rate and monitored intracranial pressure (ICP). The Marmarou model of cerebrospinal fluid (CSF) dynamics for constant rate infusions were used to calculate parameters describing cerebrospinal fluid (CSF) dynamics by a non-linear least squares fit of the model to the intracranial pressure (ICP) data (62).

The test system of another data set is NKCC1. In words: LiCl ICV pretreatment in adult IVH model, ChP pNKCC1 immunoblot. It is filed as in vivo, mouse. The following applies: adult mice; ICV LiCl 50 mM, 5 μL, 30 min. prior to blood; after 48 hrs. The text has this:
P4: pups were anesthetized by hypothermia. An incision was made along the midline of the scalp to expose the skull. A 26 G needle was used to pierce the skull directly above the lateral ventricle. AAV solution or age-matched whole blood was delivered into the lateral ventricle through the piercing using glass capillary pipettes. The skin incision was closed with suture and Vetbond (3M, Minnesota). The pup was warmed and returned to cage after recovery. Whole blood was collected transcardially from littermates anesthetized by hypothermia. Adult: adult intracerebroventricular (ICV) injection followed similar procedures as P4 with the following exceptions: (1) adult mice were anesthetized using isoflurane; (2) a hand drill was used directly above the lateral ventricle; (3) blood donor was anesthetized using ketamine/xylazine.
Tissues were quickly dissected in cold HBSS and homogenized in RIPA buffer supplemented with protease and phosphatase inhibitors. The homogenate was centrifuged at maximum speed for 10 min. to remove cellular debris. Protein concentration was determined by BCA assay (Thermo Scientific 23227). Samples were denatured in 2% SDS supplemented with 2-Mercaptoethanol by heating at 37° C. for 5 min. […] Band intensity was quantified by FIJI.
(In general: Immunoblotting shows a protein as a band on a membrane.)

On to `NCCOB(c1ccccc1)c1ccccc1` [2-APB, 2-aminoethoxydiphenyl borate], for which, in data set [1], the “epifluorescence calcium responses to plasma” value is recorded as “disrupted”.
`O=C(O)CN(CC(=O)O)c1ccccc1OCCOc1ccccc1N(CC(=O)O)CC(=O)O` [BAPTA]: the “epifluorescence calcium responses to plasma” value in data set [1] is “disrupted”.
Regarding `O=C(O)CN(CCN(CC(=O)O)CC(=O)O)CC(=O)O` [EDTA, ethylenediaminetetraacetic acid], in data set [1], the “epifluorescence calcium responses to plasma” value was “disrupted”. For the same molecule, the ventriculomegaly entry in data set [2] (E14.5, ICV injection of blood containing EDTA, 3 weeks after the injection) is recorded as “severe ventriculomegaly”.
For `O=C(O)CN(CCOCCOCCN(CC(=O)O)CC(=O)O)CC(=O)O` [EGTA, ethylene glycol-bis(β-aminoethyl ether)-N,N,N′,N′-tetraacetic acid], the “epifluorescence calcium responses to plasma” value in data set [1] was “disrupted”.
Take `[Cl-].[Li+]` [LiCl, lithium chloride]: the “epifluorescence calcium responses to plasma” value in data set [1] is listed as “disrupted”. Moreover, the “NKCC1 phosphorylation rate (pNKCC1)” value in the data set with NKCC1 is on record as “decreased NKCC1 phosphorylation rate”. In addition, the ventriculomegaly entry in data set [2] (E14.5, ICV LiCl 30 min. prior to blood, vs controls, MRI) was “more pronounced ventriculomegaly”. The “ventricular enlargement in two extreme cases” value in data set [2] (E14.5, LiCl pretreatment plus blood) was “over 200 fold”. For the same molecule, in data set [2] (LiCl pretreatment alone), the “baseline intracranial pressure (ICP)” value was “does not change” and the compliance entry was “does not change”. Moreover, the ventricle size entry in data set [2] (LiCl treatment alone) is on record as “did not affect ventricle size”. Besides, the “intracranial pressure (ICP)” value in data set [2] (LiCl-Blood mice compared to LiCl-PBS mice) is on record as “unaltered”.
